Assay results as given in patent publication US20090022806A1, “Nanoparticle and polymer formulations for thyroid hormone analogs, antagonists and formulations and uses thereof” (priority 2006, published 2009).

Tests used:
[1] = test system: phosphorylated ERK1/2 in ECV304 endothelial cells; assay: MAPK (ERK1/2) activation in ECV304 cells, nuclear pERK1/2 immunoblot; assay type: cell-based; conditions: T4 10^−7 mol/L, 15 minutes to 6 hours
Experimental: ECV304 endothelial cells were cultured in M199 medium with 0.25% hormone-depleted serum 13 for 2 days. […] Nuclear fractions were pre-pared from all samples by our method reported previously, the proteins separated by polyacrylamide gel electrophoresis, and transferred to membranes for immunoblotting with antibody to phosphorylated ERK 1/2.

platelets = assay: Collagen-induced platelet aggregation and secretion in whole blood (impedance); assay type: cell-based, human; conditions: 10-100 nM
From the text: Platelet aggregation and de-granulation in whole blood using Impedance Technique: The Model 560 Whole-Blood Aggregometer and the associated Aggro-Link Software from the Chrono-Log Corporation were used in this study. Two electrodes are placed in diluted blood and an electrical impulse is sent from one to the other. As the platelets aggregate around the electrodes, the Chrono-Log measures the impedance of the electrical signal in ohms of resistance.
The blood was kept on a rocker to extend the life of the platelets, and experiments were done within 5 hours of phlebotomy.
Procedure: For the control, 500 microliters of whole blood, 500 microliters of 0.9% saline, and a magnetic stir bar were mixed into a cuvette, and heated for five minutes to 37 degrees Celsius. Sub-threshold aggregation was induced with 5 microliters of 1-2 μg/ml Collagen, which the Aggregometer measured for 6-7 minutes. […] Ingerman-Wojenski C, Smith J B, Silver M J. Evaluation of electrical aggregometry: comparison with optical aggregometry, secretion of ATP, and accumulation of radiolabeled platelets. J Lab Clin Med. 1983 January; 101(1):44-52.

[2] = test system: Human dermal micro-vascular endothelial cells (HDMEC); assay: Three-dimensional human micro-vascular endothelial sprouting assay; assay type: cell-based
Experimental: In Vitro Three-Dimensional Sprout Angiogenesis of Human Dermal Micro-Vascular Endothelial Cells (HDMEC) Cultured on Micro-Carrier Beads Coated with Fibrin: Confluent HDMEC (passages 5-10) were mixed with gelatin-coated Cytodex-3 beads with a ratio of 40 cells per bead. Cells and beads (150-200 beads per well for 24-well plate) were suspended with 5 ml EBM+15% normal human serum, mixed gently every hour for first 4 hours, then left to culture in a CO2 incubator overnight. The next day, 10 ml of fresh EBM+5% HS were added, and the mixture was cultured for another 3 hours. Before experiments, the culture of EC-beads was checked; then 500 ul of PBS was added to a well of 24-well plate, and 100 ul of the EC-bead culture solution was added to the PBS. The number of beads was counted, and the concentration of EC/beads was calculated.
A fibrinogen solution (1 mg/ml) in EBM medium with or without angiogenesis factors or testing factors was prepared. For positive control, 50 ng/ml VEGF+25 ng/ml FGF2 was used. EC-beads were washed with EBM medium twice, and EC-beads were added to fibrinogen solution. The experiment was done in triplicate for each condition. The EC-beads were mixed gently in fibrinogen solution, and 2.5 ul human thrombin (0.05 U/ul) was added in 1 ml fibrinogen solution; 300 ul was immediately transferred to each well of a 24-well plate. The fibrinogen solution polymerizes in 5-10 minutes; after 20 minutes, we added EBM+20% normal human serum+10 ug/ml aprotinin. The plate was incubated in a CO2 incubator. It takes about 24-48 hours for HDMEC to invade fibrin gel and form tubes.
A micro-carrier in vitro angiogenesis assay previously designed to investigate bovine pulmonary artery endothelial cell angiogenic behavior in bovine fibrin gels [Nehls and Drenckhahn, 1995a, b] was modified for the study of human microvascular endothelial cell angiogenesis in three-dimensional ECM environments (FIGS. 1 and 2). Briefly, human fibrinogen, isolated as previously described [Feng et al, 1999], was dissolved in M199 medium at a concentration of 1 mg/ml (pH 7.4) and sterilized by filtering through a 0.22 micron filter. An isotonic 1.5 mg/ml collagen solution was prepared by mixing sterile Vitrogen 100 in 5×M199 medium and distilled water. The pH was adjusted to 7.4 by 1N NaOH. In certain experiments, growth factors and ECM proteins (such as VEGF, bFGF, PDGF-BB, serum, gelatin, and fibronectin) were added to the fibrinogen or collagen solutions. About 500 EC-beads were then added to the 1 mg/ml fibrinogen or 1.5 mg/ml collagen solutions. Subsequently, EC-beads-collagen or EC-beads-fibrinogen suspension (500 EC-beads/ml) was plated onto 24-well plates at 300 ul/well. EC-bead-collagen cultures were incubated at 37° C. to form gel. The gelling of EC-bead-fibrin cultures occurred in less than 5 minutes at room temperature after the addition of thrombin to a final concentration of 0.5 U/ml. After gelation, 1 ml of fresh assay medium (EBM supplemented with 20% normal human serum for HDMEC or EBM supplemented with 10% fetal bovine serum was added to each well. The angiogenic response was monitored visually and recorded by video image capture. Specifically, capillary sprout formation was observed and recorded with a Nikon Diaphot-TMD inverted microscope (Nikon Inc.; Melville, N.Y.), equipped with an incubator housing with a Nikon NP-2 thermostat and Sheldon #2004 carbon dioxide flow mixer. The microscope was directly interfaced to a video system consisting of a Dage-MTI CCD-72S video camera and Sony 12″ PVM-122 video monitor linked to a Macintosh G3 computer. The images were captured at various magnifications using Adobe Photoshop. The effect of angiogenic factors on sprout angiogenesis was quantified visually by determining the number and percent of EC-beads with capillary sprouts. One hundred beads (five to six random low power fields) in each of triplicate wells were counted for each experimental condition. All experiments were repeated at least three times. […]

purified αVβ3 integrin = target: T1, purified αVβ3 integrin (Homo sapiens, UniProt P05106+P06756); assay: Radioligand binding assay, [125I]-T4 to purified integrin
T1 construct: purchased
Experimental: Two μg of purified αVβ3 was mixed with indicated concentrations of test compounds and allowed to incubate for 30 min at room temperature. […] The samples were mixed with sample buffer (50% glycerol, 0.1M Tris-HCl, pH 6.8, and bromophenol blue) and runout on a 5% basic-native gel for 24 h at 45 mA in the cold. The apparatus was disassembled and the gels were placed on filter paper, wrapped in plastic wrap, and exposed to film. Band intensity was determined using the VersaDoc 5000 Imaging system.

[3] = hormone 0.1 uM alone, pretreated FGF2 1.25 ng/ml + VEGF […], day 3

T1 sequence (P06756 31-889 limits assumed): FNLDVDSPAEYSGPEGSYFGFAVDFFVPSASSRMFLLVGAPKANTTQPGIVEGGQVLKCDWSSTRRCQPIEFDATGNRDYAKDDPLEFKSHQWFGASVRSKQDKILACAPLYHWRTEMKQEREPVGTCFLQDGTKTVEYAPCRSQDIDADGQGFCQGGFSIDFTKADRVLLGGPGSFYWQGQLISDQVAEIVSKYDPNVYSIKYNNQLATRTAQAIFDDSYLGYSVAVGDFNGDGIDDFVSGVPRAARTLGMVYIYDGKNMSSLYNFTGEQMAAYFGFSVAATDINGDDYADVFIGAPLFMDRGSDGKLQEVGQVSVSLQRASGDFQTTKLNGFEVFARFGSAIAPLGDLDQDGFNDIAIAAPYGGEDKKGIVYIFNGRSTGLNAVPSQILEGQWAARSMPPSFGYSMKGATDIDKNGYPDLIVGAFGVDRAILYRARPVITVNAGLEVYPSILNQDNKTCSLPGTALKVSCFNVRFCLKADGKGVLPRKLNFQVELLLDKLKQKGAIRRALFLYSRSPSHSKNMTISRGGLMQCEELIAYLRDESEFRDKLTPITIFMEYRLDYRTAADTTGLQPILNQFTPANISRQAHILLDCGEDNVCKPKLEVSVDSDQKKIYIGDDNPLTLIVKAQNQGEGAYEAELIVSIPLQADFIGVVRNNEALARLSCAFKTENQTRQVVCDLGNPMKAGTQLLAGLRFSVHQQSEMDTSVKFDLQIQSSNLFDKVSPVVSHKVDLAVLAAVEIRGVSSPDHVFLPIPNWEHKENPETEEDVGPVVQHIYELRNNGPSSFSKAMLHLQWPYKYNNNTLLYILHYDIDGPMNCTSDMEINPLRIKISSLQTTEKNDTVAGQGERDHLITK
T1 sequence (P06756 891-1048 partner limits assumed): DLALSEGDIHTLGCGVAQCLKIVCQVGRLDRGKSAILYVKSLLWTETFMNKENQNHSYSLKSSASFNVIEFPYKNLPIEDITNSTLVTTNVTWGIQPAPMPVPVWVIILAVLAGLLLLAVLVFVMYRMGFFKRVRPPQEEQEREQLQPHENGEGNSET
T1 sequence (P05106 27-788): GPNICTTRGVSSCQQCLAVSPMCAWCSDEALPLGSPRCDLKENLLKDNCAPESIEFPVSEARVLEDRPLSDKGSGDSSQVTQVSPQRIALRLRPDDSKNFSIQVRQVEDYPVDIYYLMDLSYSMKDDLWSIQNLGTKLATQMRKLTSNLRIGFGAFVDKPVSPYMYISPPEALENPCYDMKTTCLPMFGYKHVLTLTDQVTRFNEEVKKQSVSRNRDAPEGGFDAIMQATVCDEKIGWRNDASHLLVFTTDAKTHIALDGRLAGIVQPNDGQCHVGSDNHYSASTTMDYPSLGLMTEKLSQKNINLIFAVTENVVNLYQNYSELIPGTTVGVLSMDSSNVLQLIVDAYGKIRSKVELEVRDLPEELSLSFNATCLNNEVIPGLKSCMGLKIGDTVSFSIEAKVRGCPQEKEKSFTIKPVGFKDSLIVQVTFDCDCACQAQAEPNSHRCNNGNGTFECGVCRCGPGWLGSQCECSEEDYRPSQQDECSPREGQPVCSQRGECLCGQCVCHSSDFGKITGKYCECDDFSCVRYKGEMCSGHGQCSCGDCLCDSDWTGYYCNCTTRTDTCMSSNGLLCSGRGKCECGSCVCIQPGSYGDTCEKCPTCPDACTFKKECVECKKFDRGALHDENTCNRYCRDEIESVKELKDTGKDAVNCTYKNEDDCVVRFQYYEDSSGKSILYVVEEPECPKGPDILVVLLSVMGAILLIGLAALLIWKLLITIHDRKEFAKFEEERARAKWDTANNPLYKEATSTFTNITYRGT

reduction of [125I]T4 binding to purified αVβ3 (purified αVβ3 integrin; competitor 10^−4 M): almost completely displaced
reduction of [125I]T4 binding to purified αVβ3 (purified αVβ3 integrin; competitor 10^−5 M): maximal
reduction of [125I]T4 binding to purified αVβ3 (purified αVβ3 integrin; competitor 10^−6 M (total)): 58%
reduction of [125I]T4 binding to purified αVβ3 (purified αVβ3 integrin; competitor 10^−7 M (total)): 13%
EC50 (purified αVβ3 integrin; non-linear regression): 0.371 nM
Kd (purified αVβ3 integrin; non-linear regression): 0.333 nM
Structure (SMILES): N[C@@H](Cc1cc(I)c(Oc2cc(I)c(O)c(I)c2)c(I)c1)C(=O)O [T4, L-thyroxine]
time of maximal phosphorylation and nuclear translocation of ERK1/2 [1]: 30 min
enhancing platelet aggregation and secretion (de-granulation) (platelets): effective
stimulation of angiogenesis ([2]; 0.01-0.1 μM): significant (P<0.01) stimulation of angiogenesis
Mean Tube Vessel Length (mm) ± SD ([2]; FGF2 25 ng + VEGF 50 ng, T3 20 ng, T4 23 ng, T4-agarose 23 ng, pre-treated with FGF2 1.25 ng/ml + VEGF […]): 1.65 ± 0.15 mm
Mean number of Migrated cells ± SD [2, 3]: 182 ± 11
Mean vessel Length (mm) ± SD [2, 3]: 1.16 ± 0.21 mm
